Experimental data: patent US7074785B2, “Δ1-pyrrolines used as pesticides” (Bayer Cropscience AG, priority 2001, dated 2006)
Read-outs that look alike come from different tables or passages of the source.

How the values were obtained:
[1] = system: greenhouse red spider mite (Tetranychus urticae); experiment: Tetranychus test (OP resistant/dip treatment); format: in vivo; settings: 168 h
Procedure: Tetranychus Test (OP Resistant/Dip Treatment)
Solvent: 7 parts by weight of dimethylformamide
After the desired period of time, the effect in % is determined.

[2] = logP determination by HPLC (reversed-phase C18, EEC Directive 79/831 Annex V.A8); format: physicochemical
Procedure: The logP values stated in the above tables and Preparation Examples are determined in accordance with EEC Directive 79/831 Annex V.A8 by HPLC (High Performance Liquid Chromatography) using a reversed-phase column (C 18). Temperature: 43° C.
In the acidic range at pH 2.3 the determination takes place using 0.1% aqueous phosphoric acid and acetonitrile as the mobile phases; linear gradient from 10% acetonitrile to 90% acetonitrile. Corresponding results are marked in the tables by “a)”
In the neutral range at pH 7.5 the determination takes place using 0.01 molar aqueous phosphate buffer solution and acetonitrile as the mobile phases; linear gradient from 10% acetonitrile to 90% acetonitrile. Corresponding results are marked in the tables by “b)”
Calibration is carried out using unbranched alkan-2-ones (having 3 to 16 carbon atoms), with known logP values (the logP values determined on the basis of the retention times using linear interpolation between two successive alkanones).

[3] = system: larvae of the mustard beetle (Phaedon cochleariae); experiment: Phaedon larvae test; settings: in Brassica oleracea, 168 h
[4] = system: army worm (Spodoptera frugiperda) caterpillars; experiment: Spodoptera frugiperda test; format: in vivo; settings: in Brassica oleracea, 168 h
[5] = read-out: Kill rate in % after 7 d, 100 ppm, bean plants dipped, Tetranychus urticae OP-resistant
[6] = HPLC, acidic range pH 2.3, 0.1% aqueous phosphoric acid/acetonitrile; marked a), read-out: log P (pH 2.3)
[7] = HPLC, neutral range pH 7.5, 0.01 molar phosphate buffer/acetonitrile; marked b), read-out: log P (pH 7.5)
[8] = read-out: Kill rate in % after 7 d, 100 ppm, cabbage leaves dipped, Phaedon cochleariae larvae
[9] = read-out: Kill rate in % after 7 d, 100 ppm, cabbage leaves dipped, Spodoptera frugiperda
[10] = reversed-phase C18 HPLC column; HPLC, acidic range pH 2.3, 0.1% aqueous phosphoric acid/acetonitrile; marked a), read-out: log P (pH 2.3)
[11] = read-out: Kill rate in % after 7 d
[12] = reversed-phase C18 HPLC column; HPLC, neutral range pH 7.5, 0.01 molar phosphate buffer/acetonitrile; marked b), read-out: log P (pH 7.5)
[13] = 100 ppm, cabbage leaves dipped, read-out: Kill rate in % after 7 d
[14] = 100 ppm, bean plants dipped, Tetranychus urticae OP-resistant, read-out: Kill rate in % after 7 d

Row | SMILES | pest or weed control at 100 ppm [1, 5] [%] | chromatographic logP [2, 6] | chromatographic logP [2, 7] | pest or weed control at 100 ppm [3, 8] [%] | pest or weed control at 100 ppm [4, 9] [%] | further results
1 | CCCCCCOC(=O)Nc1ccc(-c2ccc(C3CCC(c4c(F)cccc4F)=N3)cc2)cc1 (stereo not shown) [Compound 19] | ≥ 85 | 4.46 | 5.26 | ≥ 85 |  | 
2 | COC(=O)N(C)c1ccc(-c2ccc(C3CCC(c4c(F)cccc4F)=N3)cc2)cc1 (stereo not shown) [Compound 35] | ≥ 85 | 2.58 | 3.79 | ≥ 85 |  | 
3 | O=C(Nc1ccc(-c2ccc(C3CCC(c4c(F)cccc4F)=N3)cc2)cc1)OCCc1ccccc1 (stereo not shown) [Compound 25] |  | 3.62 | 4.64 | ≥ 85 | ≥ 95 | 
4 | O=C(Nc1ccc(-c2ccc(C3CCC(c4c(F)cccc4F)=N3)cc2)cc1)N1CCCC1 (stereo not shown) [Compound 11] |  |  |  |  |  | chromatographic logP [2, 10]: 2.11; pest or weed control at 100 ppm [3, 11]: 100%
5 | CC(C)C(C)OC(=O)Nc1ccc(-c2ccc(C3CCC(c4c(F)cccc4F)=N3)cc2)cc1 (stereo not shown) [Compound 16] |  | 3.82 | 4.77 | ≥ 85 |  | 
6 | CCCCN(CC)C(=O)Nc1ccc(-c2ccc(C3CCC(c4c(F)cccc4F)=N3)cc2)cc1 (stereo not shown) [Compound 14] |  |  |  |  |  | chromatographic logP [2, 10]: 3.18; chromatographic logP [2, 12]: 4.36; pest or weed control at 100 ppm [4, 13]: ≥ 95%
7 | CCCCC(CC)COCCOC(=O)Nc1ccc(-c2ccc(C3CCC(c4c(F)cccc4F)=N3)cc2)cc1 (stereo not shown) [Compound 28] | ≥ 85 | 5.13 | 5.97 |  | ≥ 95 | 
8 | O=C(Nc1ccc(-c2ccc(C3CCC(c4c(F)cccc4F)=N3)cc2)cc1)OC1CCCCC1 (stereo not shown) [Compound 10] |  | 3.88 | 1.68 | 100 | ≥ 95 | 
9 | CCOC(=O)N(C)c1ccc(-c2ccc(C3CCC(c4c(F)cccc4F)=N3)cc2)cc1 (stereo not shown) [Compound 37] |  | 2.92 | 4.16 | ≥ 85 | ≥ 95 | 
10 | O=C(Nc1ccccc1)Nc1ccc(-c2ccc(C3CCC(c4c(F)cccc4F)=N3)cc2)cn1 (stereo not shown) [Compound 22] |  |  |  |  |  | pest or weed control at 100 ppm [1, 14]: ≥ 85%; chromatographic logP [2, 10]: 2.71; chromatographic logP [2, 12]: 3.98; pest or weed control at 100 ppm [4, 13]: ≥ 95%
11 | COCCOC(=O)Nc1ccc(-c2ccc(C3CCC(c4c(F)cccc4F)=N3)cc2)cc1 (stereo not shown) [Compound 31] |  | 2.24 | 3.45 |  | ≥ 95 | 
12 | O=C(Nc1ccc(-c2ccc(C3CCC(c4c(F)cccc4F)=N3)cc2)cc1)N1CCCCC1 (stereo not shown) [Compound 12] |  |  |  |  |  | chromatographic logP [2, 10]: 2.53; chromatographic logP [2, 12]: 3.71; pest or weed control at 100 ppm [3, 11]: 100%; pest or weed control at 100 ppm [4, 13]: ≥ 95%
13 | COC(=O)Nc1ccc(Br)cc1 [III-1, methyl 4-bromophenylcarbamate] |  | 2.27 |  |  |  | 
14 | CCCN(CCC)CCOC(=O)Nc1ccc(-c2ccc(C3CCC(c4c(F)cccc4F)=N3)cc2)cc1 (stereo not shown) [Compound 29] | ≥ 85 | 1.74 | 5.52 | ≥ 85 |  | 
15 | CC(C)(C)COC(=O)Nc1ccc(-c2ccc(C3CCC(c4c(F)cccc4F)=N3)cc2)cc1 (stereo not shown) [Compound 23] | ≥ 85 | 3.76 |  |  | ≥ 95 | 
16 | CCCC(C)OC(=O)Nc1ccc(-c2ccc(C3CCC(c4c(F)cccc4F)=N3)cc2)cc1 (stereo not shown) [Compound 17] | ≥ 85 |  | 4.82 |  | ≥ 95 | 
17 | CC(C)CCOC(=O)Nc1ccc(-c2ccc(C3CCC(c4c(F)cccc4F)=N3)cc2)cc1 (stereo not shown) [Compound 21] |  | 3.72 |  | ≥ 85 | ≥ 95 | 

Row | SMILES | pest or weed control at 100 ppm [1, 5] [%] | chromatographic logP [2, 6] | chromatographic logP [2, 7] | pest or weed control at 100 ppm [3, 8] [%] | pest or weed control at 100 ppm [4, 9] [%] | further results
18 | CCCCOC(=O)Nc1ccc(-c2ccc(C3CCC(c4c(F)cccc4F)=N3)cc2)cc1 (stereo not shown) [Compound 9] |  | 3.44 | 4.6 | 100 | ≥ 95 | 
19 | CCOCCOC(=O)Nc1ccc(-c2ccc(C3CCC(c4c(F)cccc4F)=N3)cc2)cc1 (stereo not shown) [Compound 32] | ≥ 85 | 2.52 | 3.75 | ≥ 85 |  | 
20 | O=C(Nc1ccc(-c2ccc(C3CCC(c4c(F)cccc4F)=N3)cc2)cc1)OCCOCCOCCCC(F)(F)C(F)(F)F (stereo not shown) [Compound 34] | ≥ 85 | 3.7 | 4.73 |  | ≥ 95 | 
21 | O=C1OCCN1c1ccc(Br)cc1 [III-4, 3-(4-bromophenyl)-1,3-oxazolidin-2-one] |  |  |  |  |  | chromatographic logP [2, 10]: 2.02
22 | CCC(CC)OC(=O)Nc1ccc(-c2ccc(C3CCC(c4c(F)cccc4F)=N3)cc2)cc1 (stereo not shown) [Compound 24] | ≥ 85 | 3.76 |  | ≥ 85 |  | 
23 | O=C(Nc1ccc(Br)cc1)N1CCOCC1 [III-5, N-(4-bromophenyl)-4-morpholinecarboxamide] |  |  |  |  |  | chromatographic logP [2, 10]: 1.75
24 | CCCCCOC(=O)Nc1ccc(-c2ccc(C3CCC(c4c(F)cccc4F)=N3)cc2)cc1 (stereo not shown) [Compound 18] |  | 3.87 | 4.89 | ≥ 85 | ≥ 95 | 
25 | O=C(Nc1ccc(-c2ccc(C3CCC(c4c(F)cccc4F)=N3)cc2)cc1)N1CCOCC1 (stereo not shown) [Compound 5, N-{4′-[5-(2,6-difluorophenyl)-3,4-dihydro-2H-pyrrol-2-yl]-1,1 ′-biphenyl-4-yl}-4-morpholinecarboxamide] |  |  |  |  |  | chromatographic logP [2, 10]: 1.87; chromatographic logP [2, 12]: 2.96; pest or weed control at 100 ppm [4, 13]: ≥ 95%
26 | CCCCOC(=O)N(C)c1ccc(Br)cc1 [III-3, n-butyl-4-bromophenyl(methyl)carbamate] |  | 3.88 |  |  |  | 
27 | Nc1ccc(-c2ccc(C3CCC(c4c(F)cccc4F)=N3)cc2)cc1 (stereo not shown) [VII-1, 4′-[5-(2,6-difluorophenyl)-3,4-dihydro-2H-pyrrol-2-yl]-1 ′-biphenyl-4-amine] |  |  |  |  |  | chromatographic logP [2, 10]: 1.25
28 | O=C1OCCN1c1ccc(-c2ccc(C3CCC(c4c(F)cccc4F)=N3)cc2)cc1 (stereo not shown) [Compound 4, 3-{4′-[5-(2,6-difluorophenyl)-3,4-dihydro-2H -pyrrol-2-yl]-1,1′-biphenyl-4-yl}-1,3-oxazolidin-2-one] |  |  |  |  |  | pest or weed control at 100 ppm [1, 14]: ≥ 85%; chromatographic logP [2, 10]: 2.13; chromatographic logP [2, 12]: 3.28; pest or weed control at 100 ppm [4, 13]: ≥ 95%
29 | CN(C)CCOC(=O)Nc1ccc(-c2ccc(C3CCC(c4c(F)cccc4F)=N3)cc2)cc1 (stereo not shown) [Compound 30] | ≥ 85 | 1.37 |  |  | ≥ 95 | 
30 | CC(OC(=O)Nc1ccc(-c2ccc(C3CCC(c4c(F)cccc4F)=N3)cc2)cc1)c1ccccc1 (stereo not shown) [Compound 20] |  | 3.63 |  | ≥ 85 | ≥ 95 | 
31 | O=C(Nc1ccc(-c2ccc(C3CCC(c4c(F)cccc4F)=N3)cc2)cc1)OCc1ccco1 (stereo not shown) [Compound 26] | ≥ 85 | 3.01 | 4.1 |  | ≥ 95 | 
32 | CCCCOC(=O)N(C)c1ccc(-c2ccc(C3CCC(c4c(F)cccc4F)=N3)cc2)cc1 (stereo not shown) [Compound 3, n-butyl 4′-[5-(2,6-difluorophenyl)-3,4-dihydro-2H-pyrrol-2-yl]-1,1′-biphenyl-4-yl(methyl)carbamate] |  | 3.76 | 4.92 |  |  | 
33 | CCCOC(=O)Nc1ccc(Br)cc1 [III-2, n-propyl 4-bromophenylcarbamate] |  | 3.12 |  |  |  | 
